Tested on: ATF4 luciferase reporter in HEK293T cells
Test: ATF4-Luc assay (in vitro model of VWMD)
Format: cell-based, human
Conditions: Homo sapiens, HEK-293T, 7 h, HEK293T cells carrying the ATF4 luciferase reporter, 1 μg/mL tunicamycin, One Glo luminescence
Description: In order to test exemplary compounds of the invention in a cellular context, a stable VWMD cell line was first constructed. The ATF4 reporter was prepared by fusing the human full-length ATF4 5′-UTR (NCBI Accession No. BC022088.2) in front of the firefly luciferase (FLuc) coding sequence lacking the initiator methionine as described in Sidrauski et al (eLife 2013). The construct was used to produce recombinant retroviruses using standard methods and the resulting viral supernatant was used to transduce HEK293T cells, which were then subsequently selected with puromycin to generate a stable cell line.
HEK293T cells carrying the ATF4 luciferase reporter were plated on polylysine coated 384-well plates (Greiner Bio-one) at 30,000 cells per well. Cells were treated the next day with 1 μg/mL tunicamycin and 200 nM of a compound of Formula (I) for 7 hours. Luminescence was measured using One Glo (Promega) as specified by the manufacturer. Cells were maintained in DMEM with L-glutamine supplemented with 10% heat-inactivated FBS (Gibco) and Antibiotic-Antimycotic solution (Gibco).
Table 4 below summarizes the EC50 data obtained using the ATF4-Luc assay for exemplary compounds of the invention.

SMILES	EC50 [nM]
O=C(COc1ccc(Cl)c(F)c1)NC12CC(c3ccc(C(=O)N4CC(OC(F)(F)F)C4)nc3)(C1)C2 [Compound 605, 2-(4-chloro-3-fluorophenoxy)-N-(3-{6-[3-(trifluoromethoxy)azetidine-1-carbonyl]pyridin-3-yl}bicyclo[1.1.1]pentan-1-yl)acetamide]	< 10
O=C(NC12CC(OCC(=O)N3CC(OC(F)(F)F)C3)(C1)C2)[C@H]1C[C@@H](O)c2cc(Cl)ccc2O1 [Compound 333, (2R,4R)-6-chloro-4-hydroxy-N-(3-{2-oxo-2-[3-(trifluoromethoxy)azetidin-1-yl]ethoxy}bicyclo[1.1.1]pentan-1-yl)-3,4-dihydro-2H-1-benzopyran-2-carboxamide]	50 to 250
O=C(N[C@H]1CC[C@H](n2cc(OCC(F)(F)F)cn2)CC1)[C@H]1C[C@@H](O)c2cc(Cl)ccc2O1 [Compound 524, (2R,4R)-6-chloro-4-hydroxy-N-{(1r,4R)-4-[4-(2,2,2-trifluoroethoxy)-1H-pyrazol-1-yl]cyclohexyl}-3,4-dihydro-2H-1-benzopyran-2-carboxamide]	10 to 50
O=C(NC12CC(n3cc(-c4ccc(C(F)F)cn4)cn3)(C1)C2)[C@H]1C[C@@H](O)c2cc(Cl)ccc2O1 [Compound 568, (2R,4R)-6-chloro-N-(3-{4-[5-(difluoromethyl)pyridin-2-yl]-1H-pyrazol-1-yl}bicyclo[1.1.1]pentan-1-yl)-4-hydroxy-3,4-dihydro-2H-1-benzopyran-2-carboxamide]	< 10
C[C@@H](COC(F)(F)F)Oc1cnn(C23CC(NC(=O)[C@H]4C[C@@H](O)c5cc(C(F)(F)F)ccc5O4)(C2)C3)c1 [Compound 441, (2R,4R)-4-hydroxy-N-[3-(4-{[(2S)-1-(trifluoromethoxy)propan-2-yl]oxy}-1H-pyrazol-1-yl)bicyclo[1.1.1]pentan-1-yl]-6-(trifluoromethyl)-3,4-dihydro-2H-1-benzopyran-2-carboxamide]	10 to 50
O=C(COc1ccc(Cl)c(F)c1)NC12CC(n3cc(OCCCOC(F)(F)F)cn3)(C1)C2 [Compound 454, 2-(4-chloro-3-fluorophenoxy)-N-(3-{4-[3-(trifluoromethoxy)propoxy]-1H-pyrazol-1-yl}bicyclo[1.1.1]pentan-1-yl)acetamide]	< 10
COCc1ccc2nn(C34CC(NC(=O)[C@H]5C[C@@H](O)c6cc(Cl)ccc6O5)(C3)C4)cc2c1 [Compound 510, (2R,4R)-6-chloro-4-hydroxy-N-{3-[5-(methoxymethyl)-2H-indazol-2-yl]bicyclo[1.1.1]pentan-1-yl}-3,4-dihydro-2H-1-benzopyran-2-carboxamide]	10 to 50
O=C(COc1ccc(Cl)c(F)c1)NC12CC(c3ccc(C(=O)N4CCC(C(F)(F)F)C4)nc3)(C1)C2 (stereo not drawn) [Compound 619, 2-(4-chloro-3-fluorophenoxy)-N-(3-{6-[3-(trifluoromethyl)pyrrolidine-1-carbonyl]pyridin-3-yl}bicyclo[1.1.1]pentan-1-yl)acetamide]	10 to 50
O=C(NC12CC(c3ccc(C(=O)N4CC(OC(F)(F)F)C4)nc3)(C1)C2)[C@H]1C[C@@H](O)c2cc(Cl)ccc2O1 [Compound 536, (2R,4R)-6-chloro-4-hydroxy-N-(3-{6-[3-(trifluoromethoxy)azetidine-1-carbonyl]pyridin-3-yl}bicyclo[1.1.1]pentan-1-yl)-3,4-dihydro-2H-1-benzopyran-2-carboxamide]	< 10
O=C(NC12CC(n3cc(CCCOC(F)(F)F)cn3)(C1)C2)[C@H]1C[C@@H](O)c2cc(Cl)c(F)cc2O1 [Compound 514, (2R,4R)-6-chloro-7-fluoro-4-hydroxy-N-(3-{4-[3-(trifluoromethoxy)propyl]-1H-pyrazol-1-yl}bicyclo[1.1.1]pentan-1-yl)-3,4-dihydro-2H-1-benzopyran-2-carboxamide]	< 10
O=C(NC12CC(n3cc(-c4ccc(C(F)(F)F)cn4)cn3)(C1)C2)[C@H]1C[C@H](O)c2cc(C(F)(F)F)c(F)cc2O1 [Compound 640, (2R,4S)-7-fluoro-4-hydroxy-6-(trifluoromethyl)-N-(3-{4-[5-(trifluoromethyl)pyridin-2-yl]-1H-pyrazol-1-yl}bicyclo[1.1.1]pentan-1-yl)-3,4-dihydro-2H-1-benzopyran-2-carboxamide]	< 10
O=C(NC12CC(n3cc(C(=O)N4CC[C@H](F)C4)cn3)(C1)C2)[C@H]1C[C@@H](O)c2cc(Cl)ccc2O1 [Compound 382, (2R,4R)-6-chloro-N-(3-{4-[(3S)-3-fluoropyrrolidine-1-carbonyl]-1H-pyrazol-1-yl}bicyclo[1.1.1]pentan-1-yl)-4-hydroxy-3,4-dihydro-2H-1-benzopyran-2-carboxamide]	50 to 250
O=C(NC12CC(n3cc(O[C@H]4C[C@H](OC(F)(F)F)C4)cn3)(C1)C2)[C@H]1C[C@@H](O)c2cc(Cl)ccc2O1 [Compound 587, (2R,4R)-6-chloro-4-hydroxy-N-[3-(4-{[(1r,3R)-3-(trifluoromethoxy)cyclobutyl]oxy}-1H-pyrazol-1-yl)bicyclo[1.1.1]pentan-1-yl]-3,4-dihydro-2H-1-benzopyran-2-carboxamide]	< 10
O=C(NC12CC(n3cc(OCCCC(F)(F)F)cn3)(C1)C2)[C@H]1C[C@@H](O)c2cc(C(F)(F)F)c(F)cc2O1 [Compound 641, (2R,4R)-7-fluoro-4-hydroxy-N-{3-[4-(4,4,4-trifluorobutoxy)-1H-pyrazol-1-yl]bicyclo[1.1.1]pentan-1-yl}-6-(trifluoromethyl)-3,4-dihydro-2H-1-benzopyran-2-carboxamide]	< 10
COCCOc1cnn(C23CC(NC(=O)[C@H]4C[C@@H](O)c5cc(Cl)ccc5O4)(C2)C3)c1 [Compound 426, (2R,4R)-6-chloro-4-hydroxy-N-{3-[4-(2-methoxyethoxy)-1H-pyrazol-1-yl]bicyclo[1.1.1]pentan-1-yl}-3,4-dihydro-2H-1-benzopyran-2-carboxamide]	250 to 500
O=C(NC12CC(n3cc(OCCOC(F)(F)F)cn3)(C1)C2)[C@H]1C[C@H](O)c2cc(C(F)(F)F)c(F)cc2O1 [Compound 633, (2R,43)-7-fluoro-4-hydroxy-N-(3-{4-[2-(trifluoromethoxy)ethoxy]-1H-pyrazol-1-yl}bicyclo[1.1.1]pentan-1-yl)-6-(trifluoromethyl)-3,4-dihydro-2H-1-benzopyran-2-carboxamide]	< 10
O=C(NC12CC(n3cc(OCCOC(F)F)cn3)(C1)C2)[C@H]1C[C@@H](O)c2cc(Cl)ccc2O1 [Compound 420, (2R,4R)-6-chloro-N-(3-{4-[2-(difluoromethoxy)ethoxy]-1H-pyrazol-1-yl}bicyclo[1.1.1]pentan-1-yl)-4-hydroxy-3,4-dihydro-2H-1-benzopyran-2-carboxamide]	10 to 50
COc1ccc2cn(C34CC(NC(=O)[C@H]5C[C@@H](O)c6cc(Cl)ccc6O5)(C3)C4)nc2c1 [Compound 500, (2R,4R)-6-chloro-4-hydroxy-N-[3-(6-methoxy-2H-indazol-2-yl)bicyclo[1.1.1]pentan-1-yl]-3,4-dihydro-2H-1-benzopyran-2-carboxamide]	10 to 50
O=C(NC12CC(n3cc(C4CC(OC(F)(F)F)C4)nn3)(C1)C2)[C@H]1C[C@@H](O)c2cc(C(F)(F)F)ccc2O1 (stereo partly drawn) [Compound 470, (2R,4R)-4-hydroxy-N-(3-{4-[(1s,3S)-3-(trifluoromethoxy)cyclobutyl]-1H-1,2,3-triazol-1-yl}bicyclo[1.1.1]pentan-1-yl)-6-(trifluoromethyl)-3,4-dihydro-2H-1-benzopyran-2-carboxamide]	< 10
O=C(CO[C@H]1C[C@@H](OC(F)(F)F)C1)NC12CC(NC(=O)[C@@H]3C[C@@H](O)c4cc(Cl)ccc4O3)(C1)C2 [Compound 208, (2S,4R)-6-chloro-4-hydroxy-N-[3-(2-{[cis-3-(trifluoromethoxy)cyclobutyl]oxy}acetamido)bicyclo[1.1.1]pentan-1-yl]-3,4-dihydro-2H-1-benzopyran-2-carboxamide]	< 10
O=C(NC12CC(c3ccc(-n4cnc(C(F)(F)F)c4)nc3)(C1)C2)[C@H]1C[C@@H](O)c2cc(Cl)ccc2O1 [Compound 559, (2R,4R)-6-chloro-4-hydroxy-N-(3-{6-[4-(trifluoromethyl)-1H-imidazol-1-yl]pyridin-3-yl}bicyclo[1.1.1]pentan-1-yl)-3,4-dihydro-2H-1-benzopyran-2-carboxamide]	10 to 50
O=C(NC12CC(n3cc(C(=O)N4CC(COC(F)(F)F)C4)cn3)(C1)C2)[C@H]1C[C@@H](O)c2ccccc2O1 [Compound 375, (2R,4R)-4-hydroxy-N-[3-(4-{3-[(trifluoromethoxy)methyl]azetidine-1-carbonyl}-1H-pyrazol-1-yl)bicyclo[1.1.1]pentan-1-yl]-3,4-dihydro-2H-1-benzopyran-2-carboxamide]	250 to 500
O=C(CO[C@H]1C[C@@H](OC(F)(F)F)C1)NC12CCC(NC(=O)[C@H]3C[C@@H](O)c4cc(C(F)(F)F)c(F)cc4O3)(CC1)C[C@@H]2O [Compound 647, (2R,4R)-7-fluoro-4-hydroxy-N-[(3S)-3-hydroxy-4-(2-{[(1s,3R)-3-(trifluoromethoxy)cyclobutyl]oxy}acetamido)bicyclo[2.2.2]octan-1-yl]-6-(trifluoromethyl)-3,4-dihydro-2H-1-benzopyran-2-carboxamide]	< 10
O=C(NC12CC(n3cnc(-c4ccc(Cl)c(F)c4F)c3)(C1)C2)[C@H]1C[C@@H](O)c2cc(Cl)ccc2O1 [Compound 394, (2R,4R)-6-chloro-N-{3-[4-(4-chloro-2,3-difluorophenyl)-1H-imidazol-1-yl]bicyclo[1.1.1]pentan-1-yl}-4-hydroxy-3,4-dihydro-2H-1-benzopyran-2-carboxamide]	< 10

Source: patent US20250145594A1, “MODULATORS OF THE INTEGRATED STRESS PATHWAY” (Calico Life Sciences LLC, priority 2020, published 2025)
